Experimental data: US10736932B2, “Small molecule Ras inhibitors” (Ohio State Innovation Foundation, priority 2014, dated 2020)
Read-outs that look alike come from different tables or passages of the source. Square brackets hold non-standard residues; d marks the D form. Side chains are listed from the residue outwards. Peptide text beside a SMILES is read from it. * marks the point of attachment. Lys(5-FITC)NH2 = NC(=O)[C@H](CCCCNC(=S)Nc1ccc2c(c1)C(=O)OC21c2ccc(O)cc2Oc2cc(O)ccc21)N*; FITC = O=C1OC2(c3ccc(O)cc3Oc3cc(O)ccc32)c2ccc(NC(=S)*)cc21; Phe(3,4-F2) = N[C@@H](Cc1ccc(F)c(F)c1)C(=O)O; Phe(4-F) = N[C@@H](Cc1ccc(F)cc1)C(=O)O; d2Nal = N[C@H](Cc1ccc2ccccc2c1)C(=O)O; Benzoyl(3-Br) = O=C(c1cccc(Br)c1)*; Tle = CC(C)(C)[C@H](N)C(=O)O; dNle = CCCC[C@@H](N)C(=O)O; X3 = N#Cc1ccc(C(=O)*)cc1; X4 = O=C(c1ccc(Cl)nc1)*; Dap = NC[C@H](N)C(=O)O

Key:
[1] = target: T1, K-Ras(G12V) (Homo sapiens, UniProt P01116, G12V); test: Fluorescence anisotropy (FA) binding of FITC-labeled cyclic peptides to K-Ras
T1 construct: The G12V mutant K-Ras (amino acids 1-185) was recombinantly fused; GST (N, cleaved yes); made in house; host or cells: Escherichia coli BL21

[2] = target: T2, K-Ras / Raf RBD interaction (Homo sapiens, UniProt P01116, G12V); test: HTRF assay, inhibition of Ras-Raf RBD interaction; assay type: binding; conditions: for increase in Ras binding affinity upon residue substitution: relative to parent 9A5/9A6;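 on all read-outs here: HTRF signal read after overnight incubation of the assay plate at 4 °C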
T2 construct: The G12V mutant K-Ras (amino acids 1-185) was recombinantly fused; GST (N, cleaved yes); made in house; host or cells: Escherichia coli BL21

[3] = Table 2, FITC-labeled peptide, read-out: Binding affinity KD

Row | Structure (SMILES) | IC50 [2] [nM] | further results
1 | C[C@H]1NC(=O)[C@H](C(C)(C)C)NC(=O)[C@H](Cc2c[nH]c3ccccc23)NC(=O)[C@H](CCC(N)=O)NC(=O)[C@@H](CCCCNC(=O)c2cccc(Br)c2)NC(=O)[C@H](Cc2ccc(F)cc2)NC(=O)[C@H](CCCNC(=N)N)NC(=O)[C@@H](Cc2ccc3ccccc3c2)NC(=O)[C@H](CCCCNC(=S)Nc2ccc3c(c2)C(=O)OC32c3ccc(O)cc3Oc3cc(O)ccc32)NC(=O)[C@H](CCCNC(=N)N)NC(=O)[C@H](CCCNC(=N)N)NC1=O [Cyclorasin 9A36, (Trp-Tle-ala-Arg-Arg-Lys(FITC)-nal-Arg-Fpa-lys(3-bromobenzoyl)-Gln)] (cyclo(K(FITC)[d2Nal]R[Phe(4-F)][dK](Benzoyl(3-Br))QW[Tle][dA]RR)) | – | Kd [1, 3]: > 20000 nM
2 | C[C@@H](O)[C@@H]1NC(=O)[C@H](Cc2ccc(O)cc2)NC(=O)[C@@H](CC(N)=O)NC(=O)[C@H](Cc2ccc(F)cc2)NC(=O)[C@H](CCCNC(=N)N)NC(=O)[C@@H](Cc2ccc3ccccc3c2)NC(=O)[C@H](CCCNC(=N)N)NC(=O)[C@H](CCCNC(=N)N)NC(=O)[C@H](CCC(=O)N[C@@H](CCCCNC(=S)Nc2ccc3c(c2)C(=O)OC32c3ccc(O)cc3Oc3cc(O)ccc32)C(N)=O)NC(=O)[C@@H](CC(N)=O)NC1=O [Cyclorasin 2A, (Arg-Arg-nal-Arg-Fpa-asn-Tyr-Thr-asn-Gln)] (cyclo(RR[d2Nal]R[Phe(4-F)][dN]YT[dN]E(Lys(5-FITC)NH2))) | – | Kd ([1]; Table 1, resynthesized FITC-labeled peptides, FA, K-Ras, read-out: KD): > 10000 nM
3 | C[C@H]1NC(=O)[C@H](C(C)(C)C)NC(=O)[C@H](Cc2c[nH]c3ccccc23)NC(=O)[C@H](CCC(N)=O)NC(=O)[C@@H](CCCCNC(=O)c2ccc(Cl)nc2)NC(=O)[C@H](Cc2ccc(F)cc2)NC(=O)[C@H](CCCNC(=N)N)NC(=O)[C@@H](Cc2ccc3ccccc3c2)NC(=O)[C@H](CCCCNC(=S)Nc2ccc3c(c2)C(=O)OC32c3ccc(O)cc3Oc3cc(O)ccc32)NC(=O)[C@H](CCCNC(=N)N)NC(=O)[C@H](CCCNC(=N)N)NC1=O [Cyclorasin 9A33, (Trp-Tle-ala-Arg-Arg-Lys(FITC)-nal-Arg-Fpa-lys(6-chloronicotinoyl)-Gln)] (cyclo(K(FITC)[d2Nal]R[Phe(4-F)][dK](X4)QW[Tle][dA]RR)) | – | Kd [1, 3]: > 20000 nM
4 | C[C@H]1NC(=O)[C@H]([C@@H](C)O)NC(=O)[C@H](Cc2c[nH]c3ccccc23)NC(=O)[C@H](CCC(N)=O)NC(=O)[C@@H](CCCNC(=N)N)NC(=O)[C@H](Cc2ccc(F)cc2)NC(=O)[C@H](CCCNC(=N)N)NC(=O)[C@@H](Cc2ccc3ccccc3c2)NC(=O)[C@H](CCCNC(=N)N)NC(=O)[C@H](CCCNC(=N)N)NC(=O)[C@H](CCCNC(=N)N)NC1=O [Cyclorasin 9A45, (Trp-Thr-ala-Arg-Arg-Arg-nal-Arg-Fpa-arg-Gln)] (cyclo(WT[dA]RRR[d2Nal]R[Phe(4-F)][dR]Q)) | 36 ± 4 | increase in Ras binding affinity upon residue substitution [2]: 4 fold
5 | CCCC[C@H]1NC(=O)[C@H](Cc2ccc(F)cc2)NC(=O)[C@H](CCCNC(=N)N)NC(=O)[C@@H](Cc2ccc3ccccc3c2)NC(=O)[C@H](CCCNC(=N)N)NC(=O)[C@H](CCCNC(=N)N)NC(=O)[C@@H](CCCNC(=N)N)NC(=O)[C@@H](C(C)C)NC(=O)[C@H]([C@@H](C)O)NC(=O)[C@H](Cc2c[nH]c3ccccc23)NC(=O)[C@H](CCC(N)=O)NC1=O [Cyclorasin 9A14, (Trp-Thr-val-arg-Arg-Arg-nal-Arg-Fpa-nle-Gln)] (cyclo(WT[dV][dR]RR[d2Nal]R[Phe(4-F)][dNle]Q)) | 130 ± 70 | increase in Ras binding affinity upon residue substitution [2]: ~2 fold
6 | CCCC[C@H]1NC(=O)[C@H](Cc2ccc(F)cc2)NC(=O)[C@H](CCCNC(=N)N)NC(=O)[C@@H](Cc2ccc3ccccc3c2)NC(=O)[C@H](CCCNC(=N)N)NC(=O)[C@H](CCCNC(=N)N)NC(=O)[C@@H](CCCNC(=N)N)NC(=O)[C@@H](C)NC(=O)[C@H](C(C)C)NC(=O)[C@H](Cc2c[nH]c3ccccc23)NC(=O)[C@H](CCC(N)=O)NC1=O [Cyclorasin 9A18, (Trp-Val-ala-arg-Arg-Arg-nal-Arg-Fpa-nle-Gln)] (cyclo(WV[dA][dR]RR[d2Nal]R[Phe(4-F)][dNle]Q)) | 230 ± 110 | –
7 | CCCC[C@H]1NC(=O)[C@H](Cc2ccc(F)cc2)NC(=O)[C@H](CCCNC(=N)N)NC(=O)[C@@H](Cc2ccc3ccccc3c2)NC(=O)[C@H](CCCNC(=N)N)NC(=O)[C@H](CCCNC(=N)N)NC(=O)[C@H](CCCNC(=N)N)NC(=O)[C@@H](C)NC(=O)[C@H](C(C)(C)C)NC(=O)[C@H](Cc2c[nH]c3ccccc23)NC(=O)[C@H](CCC(N)=O)NC1=O [Cyclorasin 9A46, (Trp-Tle-ala-Arg-Arg-Arg-nal-Arg-Fpa-nle-Gln)] (cyclo(W[Tle][dA]RRR[d2Nal]R[Phe(4-F)][dNle]Q)) | 130 ± 20 | –
8 | CC(C)[C@H]1NC(=O)[C@H](Cc2ccc(F)cc2)NC(=O)[C@H](CCCNC(=N)N)NC(=O)[C@@H](Cc2ccc3ccccc3c2)NC(=O)[C@H](CCCNC(=N)N)NC(=O)[C@H](CCCNC(=N)N)NC(=O)[C@@H](CCCNC(=N)N)NC(=O)[C@@H](C)NC(=O)[C@H]([C@@H](C)O)NC(=O)[C@H](Cc2c[nH]c3ccccc23)NC(=O)[C@H](CCC(N)=O)NC1=O [Cyclorasin 9A11, (Trp-Thr-ala-arg-Arg-Arg-nal-Arg-Fpa-val-Gln)] (cyclo(WT[dA][dR]RR[d2Nal]R[Phe(4-F)][dV]Q)) | 310 ± 80 | –
9 | CCCC[C@H]1NC(=O)[C@H](Cc2ccc(F)cc2)NC(=O)[C@H](CCCNC(=N)N)NC(=O)[C@@H](Cc2ccc3ccccc3c2)NC(=O)[C@H](CCCNC(=N)N)NC(=O)[C@H](CCCNC(=N)N)NC(=O)[C@H](CCC(=O)N[C@@H](CCCCN)C(N)=O)NC(=O)[C@@H](C)NC(=O)[C@H](C)NC(=O)[C@H](Cc2c[nH]c3ccccc23)NC(=O)[C@@H](CO)NC1=O [Cyclorasin 9A(Thr9A), (Arg-Arg-nal-Arg-Fpa-nle-ser-Trp-Ala-ala-Gln)-Lys] (cyclo(A[dA]E([Lys-NH2])RR[d2Nal]R[Phe(4-F)][dNle][dS]W)) | > 10000 | –
10 | CCCC[C@H]1NC(=O)[C@H](Cc2ccc(F)cc2)NC(=O)[C@H](CCCNC(=N)N)NC(=O)[C@@H](Cc2ccc3ccccc3c2)NC(=O)[C@H](CCCNC(=N)N)NC(=O)[C@H](CCCNC(=N)N)NC(=O)[C@H](CCC(=O)N[C@@H](CCCCN)C(N)=O)NC(=O)[C@@H](C)NC(=O)[C@H]([C@@H](C)O)NC(=O)[C@H](C)NC(=O)[C@@H](CO)NC1=O [Cyclorasin 9A(Trp8A), (Arg-Arg-nal-Arg-Fpa-nle-ser-Ala-Thr-ala-Gln)-Lys] (cyclo(RR[d2Nal]R[Phe(4-F)][dNle][dS]AT[dA]E([Lys-NH2]))) | 7200 ± 1000 | –
11 | CCCC[C@H]1NC(=O)[C@H](Cc2ccc(F)c(F)c2)NC(=O)[C@H](CCCNC(=N)N)NC(=O)[C@@H](Cc2ccc3ccccc3c2)NC(=O)[C@H](CCCNC(=N)N)NC(=O)[C@H](CCCNC(=N)N)NC(=O)[C@H](CCCNC(=N)N)NC(=O)[C@@H](C)NC(=O)[C@H]([C@@H](C)O)NC(=O)[C@H](Cc2c[nH]c3ccccc23)NC(=O)[C@H](CCC(N)=O)NC1=O [Cyclorasin 9A43, (Trp-Thr-ala-Arg-Arg-Arg-nal-Arg-Phe(3,4-difluoro)-nle-Gln)] (cyclo(WT[dA]RRR[d2Nal]R[Phe(3,4-F2)][dNle]Q)) | 64 | increase in Ras binding affinity upon residue substitution [2]: 2 fold
12 | CCCC[C@H]1NC(=O)[C@H](CNC(=O)c2ccc(C#N)cc2)NC(=O)[C@H](CCCNC(=N)N)NC(=O)[C@@H](Cc2ccc3ccccc3c2)NC(=O)[C@H](CCCNC(=N)N)NC(=O)[C@H](CCCNC(=N)N)NC(=O)[C@H](CCCNC(=N)N)NC(=O)[C@@H](C)NC(=O)[C@H](C(C)(C)C)NC(=O)[C@H](Cc2c[nH]c3ccccc23)NC(=O)[C@H](CCC(N)=O)NC1=O [Cyclorasin 9A44c, (Trp-Tle-ala-Arg-Arg-Arg-nal-Arg-Dap(4-cyanobenzoyl)-nle-Gln)] (cyclo(W[Tle][dA]RRR[d2Nal]R[Dap](X3)[dNle]Q)) | 150 ± 50 | –
13 | CCCC[C@H]1NC(=O)[C@H](Cc2ccc(F)cc2)NC(=O)[C@H](C)NC(=O)[C@@H](Cc2ccc3ccccc3c2)NC(=O)[C@H](CCCNC(=N)N)NC(=O)[C@H](CCCNC(=N)N)NC(=O)[C@H](CCC(=O)N[C@@H](CCCCN)C(N)=O)NC(=O)[C@@H](C)NC(=O)[C@H]([C@@H](C)O)NC(=O)[C@H](Cc2c[nH]c3ccccc23)NC(=O)[C@@H](CO)NC1=O [Cyclorasin 9A(Arg4A), (Arg-Arg-nal-Ala-Fpa-nle-ser-Trp-Thr-ala-Gln)-Lys] (cyclo(RR[d2Nal]A[Phe(4-F)][dNle][dS]WT[dA]E([Lys-NH2]))) | 390 ± 280 | –
14 | C[C@H]1NC(=O)[C@H](Cc2ccc(F)cc2)NC(=O)[C@H](CCCNC(=N)N)NC(=O)[C@@H](Cc2ccc3ccccc3c2)NC(=O)[C@H](CCCNC(=N)N)NC(=O)[C@H](CCCNC(=N)N)NC(=O)[C@H](CCC(=O)N[C@@H](CCCCN)C(N)=O)NC(=O)[C@@H](C)NC(=O)[C@H]([C@@H](C)O)NC(=O)[C@H](Cc2c[nH]c3ccccc23)NC(=O)[C@@H](CO)NC1=O [Cyclorasin 9A(nle6dA), (Arg-Arg-nal-Arg-Fpa-ala-ser-Trp-Thr-ala-Gln)-Lys] (cyclo(RR[d2Nal]R[Phe(4-F)][dA][dS]WT[dA]E([Lys-NH2]))) | 7700 ± 5600 | –
15 | CCCC[C@H]1NC(=O)[C@H](C)NC(=O)[C@H](CCCNC(=N)N)NC(=O)[C@@H](Cc2ccc3ccccc3c2)NC(=O)[C@H](CCCNC(=N)N)NC(=O)[C@H](CCCNC(=N)N)NC(=O)[C@H](CCC(=O)N[C@@H](CCCCN)C(N)=O)NC(=O)[C@@H](C)NC(=O)[C@H]([C@@H](C)O)NC(=O)[C@H](Cc2c[nH]c3ccccc23)NC(=O)[C@@H](CO)NC1=O [Cyclorasin 9A(Fpa5A), (Arg-Arg-nal-Arg-Ala-nle-ser-Trp-Thr-ala-Gln)-Lys] (cyclo(RR[d2Nal]RA[dNle][dS]WT[dA]E([Lys-NH2]))) | > 10000 | –
